Test system: HUVEC/MSC spheroids viability
Assay: Human HUVEC/MSC cell line growth inhibition [KRAS2];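 for viability, T/C: percent of DMSO vehicle control luminescence so 100% = untreated viability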
Conditions: for viability, T/C: stronger effect = lower value; active = viability on the fitted dose curve at most 10% of control; inactive = the rest
Procedure, shortened: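 Spheroids of pooled-donor HUVEC and hMSC (passage ≤5) without tumour cells were treated with KRAS-pathway inhibitors alone and combined with targeted agents. Top concentration was at or near clinical Cmax, or 10 microM when Cmax was unknown, descending in half-log steps.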

[1] = curve of first compound, second compound 0.0316 µM
[2] = curve of first compound, second compound 0.1 µM
[3] = curve of first compound, second compound 0.316 µM
[4] = curve of first compound, second compound 1 µM
[5] = curve of first compound, second compound 3.16 µM
[6] = curve of first compound, second compound 10 µM
[7] = second compound 0.0316 µM, first compound 0.0316 µM
[8] = second compound 0.0316 µM, first compound 0.1 µM
[9] = second compound 0.1 µM, first compound 0.0316 µM
[10] = second compound 0.1 µM, first compound 0.1 µM
[11] = second compound 0.316 µM, first compound 0.0316 µM
[12] = second compound 0.316 µM, first compound 0.1 µM
[13] = second compound 1 µM, first compound 0.0316 µM
[14] = second compound 1 µM, first compound 0.1 µM
[15] = second compound 3.16 µM, first compound 0.0316 µM
[16] = second compound 3.16 µM, first compound 0.1 µM
[17] = second compound 10 µM, first compound 0.0316 µM
[18] = second compound 10 µM, first compound 0.1 µM
[19] = second compound 0.0316 µM, first compound 0.316 µM
[20] = second compound 0.0316 µM, first compound 1 µM
[21] = second compound 0.0316 µM, first compound 3.16 µM
[22] = second compound 0.0316 µM, first compound 10 µM
[23] = second compound 0.1 µM, first compound 0.316 µM
[24] = second compound 0.1 µM, first compound 1 µM
[25] = second compound 0.1 µM, first compound 3.16 µM
[26] = second compound 0.1 µM, first compound 10 µM
[27] = second compound 0.316 µM, first compound 0.316 µM
[28] = second compound 0.316 µM, first compound 1 µM
[29] = second compound 0.316 µM, first compound 3.16 µM
[30] = second compound 0.316 µM, first compound 10 µM
[31] = second compound 1 µM, first compound 0.316 µM
[32] = second compound 1 µM, first compound 1 µM
[33] = second compound 1 µM, first compound 3.16 µM
[34] = second compound 1 µM, first compound 10 µM
[35] = second compound 3.16 µM, first compound 0.316 µM
[36] = second compound 3.16 µM, first compound 1 µM
[37] = second compound 3.16 µM, first compound 3.16 µM
[38] = second compound 3.16 µM, first compound 10 µM
[39] = second compound 10 µM, first compound 0.316 µM
[40] = second compound 10 µM, first compound 1 µM
[41] = second compound 10 µM, first compound 3.16 µM
[42] = second compound 10 µM, first compound 10 µM

CC(C)n1nc(-c2ccc3oc(N)nc3c2)c2c(N)ncnc21 + COc1cc2nc(C)nc(NC(C)c3cc(N)cc(C(F)(F)F)c3)c2cc1OC1CCOC1
2.8 nM: IC50 [4]
2.49 nM: IC50 [5]
3.01 nM: IC50 [1]
2.94 nM: IC50 [3]
5.16 nM: IC50 [6]
inactive: viability, T/C (second compound 0.0316 µM, first compound 0.000316 µM) 78.9% | viability, T/C (second compound 0.0316 µM, first compound 0.001 µM) 80.2% | viability, T/C (second compound 0.0316 µM, first compound 0.00316 µM) 48.5% | viability, T/C (second compound 0.0316 µM, first compound 0.01 µM) 53% | viability, T/C [7] 49.2% | viability, T/C [8] 44% | viability, T/C (second compound 0.1 µM, first compound 0.000316 µM) 82.9% | viability, T/C (second compound 0.1 µM, first compound 0.001 µM) 61.5% | viability, T/C (second compound 0.1 µM, first compound 0.00316 µM) 55.5% | viability, T/C (second compound 0.1 µM, first compound 0.01 µM) 46.5% | viability, T/C [9] 50.5% | viability, T/C [10] 39.6% | viability, T/C (second compound 0.316 µM, first compound 0.000316 µM) 79.8% | viability, T/C (second compound 0.316 µM, first compound 0.001 µM) 76.2% | viability, T/C (second compound 0.316 µM, first compound 0.00316 µM) 48.2% | viability, T/C (second compound 0.316 µM, first compound 0.01 µM) 41.1% | viability, T/C [11] 46.1% | viability, T/C [12] 39% | viability, T/C (second compound 1 µM, first compound 0.000316 µM) 76% | viability, T/C (second compound 1 µM, first compound 0.001 µM) 67.2% | viability, T/C (second compound 1 µM, first compound 0.00316 µM) 49.3% | viability, T/C (second compound 1 µM, first compound 0.01 µM) 34.5% | viability, T/C [13] 51% | viability, T/C [14] 37.7% | viability, T/C (second compound 3.16 µM, first compound 0.000316 µM) 77% | viability, T/C (second compound 3.16 µM, first compound 0.001 µM) 71.8% | viability, T/C (second compound 3.16 µM, first compound 0.00316 µM) 44.2% | viability, T/C (second compound 3.16 µM, first compound 0.01 µM) 41.7% | viability, T/C [15] 41.8% | viability, T/C [16] 43.1% | viability, T/C (second compound 10 µM, first compound 0.000316 µM) 62.7% | viability, T/C (second compound 10 µM, first compound 0.001 µM) 61% | viability, T/C (second compound 10 µM, first compound 0.00316 µM) 59.3% | viability, T/C (second compound 10 µM, first compound 0.01 µM) 33.7% | viability, T/C [17] 41.2% | viability, T/C [18] 37.4%
6.81 nM: IC50 [2]

CCNC(=O)CC1N=C(c2ccc(Cl)cc2)c2cc(OC)ccc2-n2c(C)nnc21 (configuration not stated) + CC1OCC2(CCN(c3cnc(Sc4ccnc(N)c4Cl)c(N)n3)CC2)C1N
3020 nM: IC50 [6]
inactive: viability, T/C [7] 79.7% | viability, T/C [8] 102% | viability, T/C [19] 99.2% | viability, T/C [20] 87.5% | viability, T/C [21] 110% | viability, T/C [22] 89.4% | viability, T/C [9] 107% | viability, T/C [10] 86.2% | viability, T/C [23] 102% | viability, T/C [24] 91.8% | viability, T/C [25] 99% | viability, T/C [26] 95.3% | viability, T/C [11] 90.6% | viability, T/C [12] 88.6% | viability, T/C [27] 87.1% | viability, T/C [28] 88.2% | viability, T/C [29] 88% | viability, T/C [30] 84.1% | viability, T/C [13] 79.3% | viability, T/C [14] 97.8% | viability, T/C [31] 76.6% | viability, T/C [32] 68.4% | viability, T/C [33] 77.2% | viability, T/C [34] 58.8% | viability, T/C [15] 83.5% | viability, T/C [16] 103% | viability, T/C [35] 81.4% | viability, T/C [36] 73.8% | viability, T/C [37] 66% | viability, T/C [38] 51.3% | viability, T/C [17] 66% | viability, T/C [18] 64.5% | viability, T/C [39] 77.8% | viability, T/C [40] 64% | viability, T/C [41] 49.6% | viability, T/C [42] 30%
> 10000 nM: IC50 [1] | IC50 [2] | IC50 [3] | IC50 [4] | IC50 [5]

O=C(c1cc(Cc2n[nH]c(=O)c3ccccc23)ccc1F)N1CCN(C(=O)C2CC2)CC1 + COc1cc2nc(C)nc(NC(C)c3cc(N)cc(C(F)(F)F)c3)c2cc1OC1CCOC1
inactive: viability, T/C [7] 104% | viability, T/C [8] 108% | viability, T/C [19] 102% | viability, T/C [20] 94.2% | viability, T/C [21] 89.7% | viability, T/C [22] 99.3% | viability, T/C [9] 108% | viability, T/C [10] 101% | viability, T/C [23] 90.5% | viability, T/C [24] 89.5% | viability, T/C [25] 90.3% | viability, T/C [26] 83.9% | viability, T/C [11] 93.8% | viability, T/C [12] 92.9% | viability, T/C [27] 101% | viability, T/C [28] 93.8% | viability, T/C [29] 101% | viability, T/C [30] 115% | viability, T/C [13] 86.5% | viability, T/C [14] 115% | viability, T/C [31] 93.8% | viability, T/C [32] 88.8% | viability, T/C [33] 89.5% | viability, T/C [34] 93.2% | viability, T/C [15] 75% | viability, T/C [16] 101% | viability, T/C [35] 93% | viability, T/C [36] 82.2% | viability, T/C [37] 84.8% | viability, T/C [38] 101% | viability, T/C [17] 72.3% | viability, T/C [18] 76.5% | viability, T/C [39] 79.4% | viability, T/C [40] 68.2% | viability, T/C [41] 77.2% | viability, T/C [42] 63.2%
> 10000 nM: IC50 [1] | IC50 [2] | IC50 [3] | IC50 [4] | IC50 [5] | IC50 [6]

Cn1ncnc1[C@H]1c2n[nH]c(=O)c3cc(F)cc(c23)N[C@@H]1c1ccc(F)cc1
inactive: viability, T/C (compound 0.001 µM) 87.9% [middle of 5 runs] | viability, T/C (compound 0.00316 µM) 83.8% [middle of 5 runs] | viability, T/C (compound 0.01 µM) 90.7% [middle of 5 runs] | viability, T/C (compound 0.0316 µM) 88.1% [middle of 5 runs] | viability, T/C (compound 0.1 µM) 84.2% [middle of 5 runs]
> 100 nM: IC50 (curve of compound)

Reference: PubChem BioAssay AID2060912 (Molecular Pharmacology Branch, DTP, NCI, 2025)
